Measurements: US8247211B2, “Glycopeptide antibiotics” (American Cyanamid Company, priority 2001, dated 2012)
≈ marks a conversion by molar mass, not a printed value.

Key:
Experiment in all cases: In vitro antibacterial evaluation: minimum inhibitory concentration (MIC), broth dilution method
Format in all cases: cell-based
Settings in all cases: 18 hours at 35° C.
[1] = test system: Enterococcus sp.
How it was run: (§1)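 An MIC is reported for each organism as the least concentration giving inhibition, using broth dilution over 64-0.06 μg/mL with a 5×10^5 CFU/mL inoculum.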

[2] = test system: Staphylococcus sp.
How it was run: as §1

[3] = test system: Escherichia coli
How it was run: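 Test strains, among them recent clinical isolates carrying methicillin, penicillin and/or vancomycin resistance, were inoculated at 5×10^5 CFU/mL. A broth dilution series spanning 64-0.06 μg/mL in Muller-Hinton II […] (NCCLS M7-A2) defined the MIC as the lowest growth-inhibiting concentration.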

[4] = test system: Streptococcus sp.
How it was run: as §1

[5] = Enterococcus faecalis (GC 2242)
[6] = Enterococcus faecalis (GC 2691)
[7] = Enterococcus faecalis (GC 3059)
[8] = broth dilution, inoculum 5×10^5 CFU/mL
[9] = Streptococcus agalactiae (GC 4564)
[10] = Streptococcus pneumoniae (ATCC 6301)
[11] = Streptococcus pneumoniae (GC 1894)
[12] = Streptococcus pneumoniae (GC 4565)
[13] = Streptococcus pyogenes (GC 4563)

CC(c1ccccc1)C1NC(=O)CNC(=O)C(CO)NC(=O)C(C(O)C2CNC(=N)N2C2OC(CO)C(O)C(O)C2O)NC(=O)C(C(O)C2CNC(=N)N2)NC(=O)C(Cc2ccc(OC3OC(CO)C(OC4OC(COCC=C(c5ccccc5)c5ccccc5)C(O)C(O)C4O)C(O)C3O)cc2)NC1=O (stereo not drawn) [Example 241, Cyclo[glycyl-β-methylphenylalanyl-O-[4-O-[6-O-[3,3-diphenylprop-2-en-1-yl)hexopyranosyl]-hexopyranosyl]tyrosyl-3-(2-iminoimidazolidin-4-yl)seryl-3-(3-hexopyranosyl-2-iminoimidazolidin-4-yl)serylseryl]]
MIC Enterococcus avium (GC 4558) [1]: 4 µg/mL (≈ 2.69 µM)
MIC Enterococcus faecalis (ATCC 29212) [1]: 4 µg/mL (≈ 2.69 µM)
MIC Enterococcus faecalis (GC 2242) [1, 5]: 4 µg/mL (≈ 2.69 µM)
MIC Enterococcus faecalis (GC 2691) [1, 6]: 4 µg/mL (≈ 2.69 µM)
MIC Enterococcus faecalis (GC 3059) [1, 7]: 2 µg/mL (≈ 1.34 µM)
MIC Enterococcus faecalis (GC 4552) [1]: 4 µg/mL (≈ 2.69 µM)
MIC Enterococcus faecalis (GC 4553) [1]: 4 µg/mL (≈ 2.69 µM)
MIC Enterococcus faecalis (GC 4554) [1]: 4 µg/mL (≈ 2.69 µM)
MIC Enterococcus faecalis (GC 6189) [1]: 2 µg/mL (≈ 1.34 µM)
MIC Enterococcus faecium (GC 2243) [1]: 4 µg/mL (≈ 2.69 µM)
MIC Enterococcus faecium (GC 4556) [1]: 4 µg/mL (≈ 2.69 µM)
MIC Enterococcus faecium (GC 4557) [1]: 2 µg/mL (≈ 1.34 µM)
MIC Enterococcus faecalis (GC 2242) [1, 8]: 4 µg/mL (≈ 2.69 µM)
MIC Enterococcus faecalis (GC 2691) [1, 8]: 4 µg/mL (≈ 2.69 µM)
MIC Enterococcus faecalis (GC 3059) [1, 8]: 2 µg/mL (≈ 1.34 µM)
MIC Coagulase Negative Staphylococcus (GC 4547) [2]: 2 µg/mL (≈ 1.34 µM)
MIC Coagulase Negative Staphylococcus (GC 4548) [2]: 1 µg/mL (≈ 0.672 µM)
MIC Coagulase Negative Staphylococcus (GC 4549) [2]: 2 µg/mL (≈ 1.34 µM)
MIC Coagulase Negative Staphylococcus (GC 4551) [2]: 4 µg/mL (≈ 2.69 µM)
MIC Coagulase Negative Staphylococcus (GC 6257) [2]: 2 µg/mL (≈ 1.34 µM)
MIC Staphylococcus aureus (ATCC 29213) [2]: 2 µg/mL (≈ 1.34 µM)
MIC Staphylococcus aureus (GC 1131) [2]: 2 µg/mL (≈ 1.34 µM)
MIC Staphylococcus aureus (GC 3051) [2]: 2 µg/mL (≈ 1.34 µM)
MIC Staphylococcus aureus (GC 3053) [2]: 2 µg/mL (≈ 1.34 µM)
MIC Staphylococcus aureus (GC 4541) [2]: 2 µg/mL (≈ 1.34 µM)
MIC Staphylococcus aureus (GC 4542) [2]: 2 µg/mL (≈ 1.34 µM)
MIC Staphylococcus aureus (GC 4544) [2]: 2 µg/mL (≈ 1.34 µM)
MIC Staphylococcus aureus (GC 4545) [2]: 2 µg/mL (≈ 1.34 µM)
MIC Staphylococcus aureus-SMITH (GC 4543) [2]: 2 µg/mL (≈ 1.34 µM)
MIC Staphylococcus haemolyticus (GC 4546) [2]: 2 µg/mL (≈ 1.34 µM)
MIC Escherichia coli (ATCC 25922) [3]: >64 µg/mL
MIC Escherichia coli (GC 4559) [3]: >64 µg/mL
MIC Escherichia coli (GC 4560) [3]: 2 µg/mL (≈ 1.34 µM)
MIC Streptococcus agalactiae (GC 4564) [4, 9]: <0.06 µg/mL
MIC Streptococcus pneumoniae (ATCC 6301) [4, 10]: <0.06 µg/mL
MIC Streptococcus pneumoniae (GC 1894) [4, 11]: <0.06 µg/mL
MIC Streptococcus pneumoniae (GC 4565) [4, 12]: <0.06 µg/mL
MIC Streptococcus pyogenes (GC 4563) [4, 13]: <0.06 µg/mL
MIC Streptococcus agalactiae (GC 4564) [4, 8]: <0.06 µg/mL
MIC Streptococcus pneumoniae (ATCC 6301) [4, 8]: <0.06 µg/mL
MIC Streptococcus pneumoniae (GC 1894) [4, 8]: <0.06 µg/mL
MIC Streptococcus pneumoniae (GC 4565) [4, 8]: <0.06 µg/mL
MIC Streptococcus pyogenes (GC 4563) [4, 8]: <0.06 µg/mL

CC(c1ccccc1)C1NC(=O)CNC(=O)C(CO)NC(=O)C(C(O)C2CNC(=N)N2C2OC(CO)C(O)C(O)C2O)NC(=O)C(C(O)C2CNC(=N)N2)NC(=O)C(Cc2ccc(OC3OC(CO)C(OC4OC(CO)C(OCC=C(c5ccccc5)c5ccccc5)C(O)C4O)C(O)C3O)cc2)NC1=O (stereo not drawn) [Example 241a, Cyclo[glycyl-β-methylphenylalanyl-O-[4-O-[4-O-(3,3-diphenylprop-2-en-1-yl)hexopyranosyl]-hexopyranosyl]tyrosyl-3-(2-iminoimidazolidin-4-yl)seryl-3-[3-hexopyranosyl-2-iminoimidazolidin-4-yl)serylseryl]]
MIC Enterococcus avium (GC 4558) [1]: 2 µg/mL (≈ 1.34 µM)
MIC Enterococcus faecalis (ATCC 29212) [1]: 4 µg/mL (≈ 2.69 µM)
MIC Enterococcus faecalis (GC 2242) [1, 5]: 4 µg/mL (≈ 2.69 µM)
MIC Enterococcus faecalis (GC 2691) [1, 6]: 2 µg/mL (≈ 1.34 µM)
MIC Enterococcus faecalis (GC 3059) [1, 7]: 2 µg/mL (≈ 1.34 µM)
MIC Enterococcus faecalis (GC 4552) [1]: 4 µg/mL (≈ 2.69 µM)
MIC Enterococcus faecalis (GC 4553) [1]: 4 µg/mL (≈ 2.69 µM)
MIC Enterococcus faecalis (GC 4554) [1]: 4 µg/mL (≈ 2.69 µM)
MIC Enterococcus faecalis (GC 6189) [1]: 2 µg/mL (≈ 1.34 µM)
MIC Enterococcus faecium (GC 2243) [1]: 2 µg/mL (≈ 1.34 µM)
MIC Enterococcus faecium (GC 4556) [1]: 2 µg/mL (≈ 1.34 µM)
MIC Enterococcus faecium (GC 4557) [1]: 2 µg/mL (≈ 1.34 µM)
MIC Enterococcus faecalis (GC 2242) [1, 8]: 4 µg/mL (≈ 2.69 µM)
MIC Enterococcus faecalis (GC 2691) [1, 8]: 2 µg/mL (≈ 1.34 µM)
MIC Enterococcus faecalis (GC 3059) [1, 8]: 2 µg/mL (≈ 1.34 µM)
MIC Coagulase Negative Staphylococcus (GC 4547) [2]: 4 µg/mL (≈ 2.69 µM)
MIC Coagulase Negative Staphylococcus (GC 4548) [2]: 2 µg/mL (≈ 1.34 µM)
MIC Coagulase Negative Staphylococcus (GC 4549) [2]: 1 µg/mL (≈ 0.672 µM)
MIC Coagulase Negative Staphylococcus (GC 4551) [2]: 4 µg/mL (≈ 2.69 µM)
MIC Coagulase Negative Staphylococcus (GC 6257) [2]: 1 µg/mL (≈ 0.672 µM)
MIC Staphylococcus aureus (ATCC 29213) [2]: 2 µg/mL (≈ 1.34 µM)
MIC Staphylococcus aureus (GC 1131) [2]: 2 µg/mL (≈ 1.34 µM)
MIC Staphylococcus aureus (GC 3051) [2]: 2 µg/mL (≈ 1.34 µM)
MIC Staphylococcus aureus (GC 3053) [2]: 2 µg/mL (≈ 1.34 µM)
MIC Staphylococcus aureus (GC 4541) [2]: 2 µg/mL (≈ 1.34 µM)
MIC Staphylococcus aureus (GC 4542) [2]: 2 µg/mL (≈ 1.34 µM)
MIC Staphylococcus aureus (GC 4544) [2]: 4 µg/mL (≈ 2.69 µM)
MIC Staphylococcus aureus (GC 4545) [2]: 2 µg/mL (≈ 1.34 µM)
MIC Staphylococcus aureus-SMITH (GC 4543) [2]: 2 µg/mL (≈ 1.34 µM)
MIC Staphylococcus haemolyticus (GC 4546) [2]: 2 µg/mL (≈ 1.34 µM)
MIC Escherichia coli (ATCC 25922) [3]: >64 µg/mL
MIC Escherichia coli (GC 4559) [3]: >64 µg/mL
MIC Escherichia coli (GC 4560) [3]: 2 µg/mL (≈ 1.34 µM)
MIC Streptococcus agalactiae (GC 4564) [4, 9]: <0.06 µg/mL
MIC Streptococcus pneumoniae (ATCC 6301) [4, 10]: <0.06 µg/mL
MIC Streptococcus pneumoniae (GC 1894) [4, 11]: <0.06 µg/mL
MIC Streptococcus pneumoniae (GC 4565) [4, 12]: <0.06 µg/mL
MIC Streptococcus pyogenes (GC 4563) [4, 13]: <0.06 µg/mL
MIC Streptococcus agalactiae (GC 4564) [4, 8]: <0.06 µg/mL
MIC Streptococcus pneumoniae (ATCC 6301) [4, 8]: <0.06 µg/mL
MIC Streptococcus pneumoniae (GC 1894) [4, 8]: <0.06 µg/mL
MIC Streptococcus pneumoniae (GC 4565) [4, 8]: <0.06 µg/mL
MIC Streptococcus pyogenes (GC 4563) [4, 8]: <0.06 µg/mL
